# From ChEMBL document CHEMBL1201862, “PubChem BioAssay data set” (2004)
# Calls of active or inactive are those of the source. Cut-off read from the data, not from the text of the source, for most assays here: actives have a measured EC50 and inactives only a lower limit.
# Legend:
# BJ [1] = assay: cytotoxicity toward BJ-TERT fibroblasts, dose response, cell-based, RAS-independent, luminescence (AID 1933); type: functional; conditions: Homo sapiens
# BJ [2] = assay: cytotoxicity toward BJ-TERT-LT-ST fibroblasts, dose response, cell-based, RAS-independent, luminescence (AID 1935); type: functional; conditions: Homo sapiens;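 note: BJ fibroblasts immortalized with TERT plus LT and ST oncogenes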
# [3] = cytotoxicity toward DRD oncogenic fibroblasts, dose response, cell-based, non-viral oncogenic, luminescence (AID 1934); type: functional; conditions: Homo sapiens
# BJ [4] = assay: cells; type: functional, cell-based; conditions: Homo sapiens
# [5] = Luminescence Cell-Based Dose Confirmation HTS to Identify Inhibitors of Platelet Dense Granule Release. [Related pubchem assays: 1663 (Primary HTS), 1678 (Summary of Project)]; type: functional
# [6] = target: Luciferin 4-monooxygenase (Photinus pyralis, UniProt P08659); assay: firefly luciferase enzyme inhibitors, dose response, biochemical, luminescence (AID 1891)
# Luciferin 4-monooxygenase, sequence (P08659 whole entry): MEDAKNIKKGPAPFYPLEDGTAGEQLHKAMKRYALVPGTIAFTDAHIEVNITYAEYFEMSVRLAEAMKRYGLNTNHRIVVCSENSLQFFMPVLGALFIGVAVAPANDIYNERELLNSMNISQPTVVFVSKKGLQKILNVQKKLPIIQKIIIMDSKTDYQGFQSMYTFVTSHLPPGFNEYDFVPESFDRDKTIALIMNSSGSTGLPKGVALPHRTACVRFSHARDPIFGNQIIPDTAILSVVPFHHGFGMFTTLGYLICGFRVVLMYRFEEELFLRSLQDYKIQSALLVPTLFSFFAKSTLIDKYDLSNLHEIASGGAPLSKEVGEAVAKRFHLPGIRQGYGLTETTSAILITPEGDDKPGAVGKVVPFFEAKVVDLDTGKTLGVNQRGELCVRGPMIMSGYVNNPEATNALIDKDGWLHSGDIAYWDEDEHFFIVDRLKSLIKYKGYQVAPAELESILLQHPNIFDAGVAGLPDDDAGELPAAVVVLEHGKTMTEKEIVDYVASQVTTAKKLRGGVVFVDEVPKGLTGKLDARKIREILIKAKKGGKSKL
# [7] = target: T1, Heat shock factor protein 1 (Mus musculus, UniProt P38532); assay: HSF1 potentiators in luciferase reporter cells, confirmation, cell-based, NIH3T3, luminescence, dose retest (AID 435004); type: functional;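 note: stress induced by proteasome inhibitor MG132 added 30 min after compound; luciferase reporter driven by HSF1 response element in NIH3T3 cells; actives raise luminescence as potentiators of the MG132 stress response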
# T1 sequence (P38532 whole entry): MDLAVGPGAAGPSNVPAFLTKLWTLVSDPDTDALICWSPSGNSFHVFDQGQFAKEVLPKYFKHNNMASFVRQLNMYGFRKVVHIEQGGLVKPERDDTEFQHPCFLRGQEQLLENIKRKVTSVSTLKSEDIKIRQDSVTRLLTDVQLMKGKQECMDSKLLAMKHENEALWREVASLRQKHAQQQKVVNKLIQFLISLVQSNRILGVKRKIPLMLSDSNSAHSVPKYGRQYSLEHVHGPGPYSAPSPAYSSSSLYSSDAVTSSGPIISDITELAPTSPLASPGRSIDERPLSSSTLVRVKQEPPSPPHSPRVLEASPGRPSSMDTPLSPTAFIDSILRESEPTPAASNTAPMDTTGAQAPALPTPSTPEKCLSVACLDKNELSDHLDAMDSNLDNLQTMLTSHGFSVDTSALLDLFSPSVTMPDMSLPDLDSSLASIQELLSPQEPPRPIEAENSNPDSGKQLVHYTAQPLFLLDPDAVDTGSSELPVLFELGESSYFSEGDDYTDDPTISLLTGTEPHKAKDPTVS
# INS1 = assay: beta cell apoptosis inhibitors, cytokine rescue, dose response, luminescence, retest (AID 449756); type: functional, cell-based; conditions: Rattus norvegicus;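 note: cell death triggered by IL-1 beta plus TNF-alpha plus IFN-gamma mixture; protective hits raise ATP signal compared with cytokine alone wells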
# Vero = assay: cells; type: functional; conditions: Chlorocebus sabaeus
# cells [8] = type: functional, cell-based
# cells [9] = type: functional, cell-based; remark: listed apart in the source
# [10] = target: T2, Polyadenylate-binding protein 1 (Homo sapiens, UniProt P11940); assay: PABP1 MLLE–PAM2 binding inhibitor potency, dose response, biochemical, fluorescence polarization, FITC-PAM2 peptide (AID 602259); type: functional; conditions: read-out: IC50_Mean
# T2 sequence (P11940 whole entry): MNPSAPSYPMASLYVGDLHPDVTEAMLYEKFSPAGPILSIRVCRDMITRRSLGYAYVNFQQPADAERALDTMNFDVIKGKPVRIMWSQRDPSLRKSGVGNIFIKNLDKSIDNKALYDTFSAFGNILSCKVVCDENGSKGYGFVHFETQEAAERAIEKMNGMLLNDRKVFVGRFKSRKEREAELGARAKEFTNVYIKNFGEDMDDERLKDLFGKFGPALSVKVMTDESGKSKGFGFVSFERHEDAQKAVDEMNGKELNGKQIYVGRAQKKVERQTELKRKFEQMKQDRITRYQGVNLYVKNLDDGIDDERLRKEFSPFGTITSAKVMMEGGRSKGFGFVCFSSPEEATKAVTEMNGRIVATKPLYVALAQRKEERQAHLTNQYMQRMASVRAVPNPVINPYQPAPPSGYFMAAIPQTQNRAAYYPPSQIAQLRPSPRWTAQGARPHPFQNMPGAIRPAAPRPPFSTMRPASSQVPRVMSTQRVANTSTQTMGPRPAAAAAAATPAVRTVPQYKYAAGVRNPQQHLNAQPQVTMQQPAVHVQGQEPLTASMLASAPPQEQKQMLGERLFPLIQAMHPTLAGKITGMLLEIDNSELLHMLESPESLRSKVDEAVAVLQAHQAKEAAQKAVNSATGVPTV
# [11] = target: T2, Polyadenylate-binding protein 1; assay: PABP1 MLLE–PAM2 interaction inhibitors, dose response, miRNA deadenylation inhibitor project, biochemical, fluorescence polarization, Cy5-PAM2 peptide, secondary (AID 602260); type: functional; conditions: read-out: IC50_Mean
# [12] = test system: Streptococcus sp. 'group A'; assay: growth inhibition of control SK(-) GAS strain, dose response, counter-screen for streptokinase expression inhibitor project, luminescence, kanamycin, BacTiterGlo, confirmation (AID 1900); type: functional, organism-based
# Streptococcus = assay: Group A Streptococcus viability loss, dose response, counter-screen for streptokinase expression inhibitor project, luminescence, BacTiterGlo (AID 1915); type: functional, organism-based;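 note: potency for reduction of bacterial viability or growth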
# Streptokinase A = target: T3, Streptokinase A (Streptococcus pyogenes serotype M1, UniProt P10520); assay: S. pyogenes streptokinase expression inhibitors, potency, dose response, plasminogen activation absorbance, OD405 (AID 1914); type: functional, Streptococcus pyogenes M1 GAS;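 note: secreted streptokinase activity via plasminogen activation per viability signal from cell pellet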
# T3 sequence (P10520 whole entry): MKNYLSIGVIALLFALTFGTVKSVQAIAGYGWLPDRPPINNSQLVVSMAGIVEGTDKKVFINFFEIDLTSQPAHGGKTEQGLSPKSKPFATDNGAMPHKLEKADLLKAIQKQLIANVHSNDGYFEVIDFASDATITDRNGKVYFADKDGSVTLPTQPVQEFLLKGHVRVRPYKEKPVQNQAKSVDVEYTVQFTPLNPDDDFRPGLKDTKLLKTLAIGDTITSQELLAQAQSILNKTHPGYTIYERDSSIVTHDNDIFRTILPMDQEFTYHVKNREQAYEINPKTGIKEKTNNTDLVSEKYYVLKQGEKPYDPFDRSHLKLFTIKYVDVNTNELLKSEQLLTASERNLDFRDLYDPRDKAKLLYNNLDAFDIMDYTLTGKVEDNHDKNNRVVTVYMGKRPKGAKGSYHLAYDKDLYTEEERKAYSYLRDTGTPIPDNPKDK
structure (smiles),measurement,setting,value
CCCCOc1ccc(NC(=O)C(=O)NCCC2=CCCCC2)cc1,EC50,BJ [1],> 150 µM (not active)
same,EC50,BJ [2],> 150 µM (inconclusive)
same,EC50,[3],142 µM (active)
same,EC50,BJ [4],> 150 µM (not active)
Cc1nc2cc(Nc3ccncc3)ccc2s1,EC50,[5],> 112 µM (not active)
same,EC50,[6],> 112 µM (not active)
Cc1cc2ccccn2c1C(=O)c1cccc([N+](=O)[O-])c1,EC50,BJ [1],> 150 µM (not active)
same,EC50,BJ [2],> 150 µM (inconclusive)
same,EC50,[3],> 150 µM (inconclusive)
same,EC50,BJ [4],> 150 µM (not active)
O=C(Nc1cccc(NC(=O)c2cccnc2Cl)c1)c1ccco1,EC50,[5],16.6 µM (active)
same,EC50,[6],> 112 µM (not active)
CCOC(=S)SCC(=O)N1CCc2cc(OC)c(OC)cc2C1C1C(=O)CC(C)(C)CC1=O (stereo unspecified),EC50,[7],> 260 µM (inactive)
Cc1ccc(-c2nc(N/N=C/c3cccnc3)c3ccccc3n2)cc1,AC50,INS1,6.77 µM (active)
same,EC50,[5],1.02 µM (active)
same,EC50,[6],0.798 µM (active)
COc1ccc(/N=C2/C(=N\c3ccc(OC)cc3)N(c3ccc(OC)cc3)C(=S)N2C(=O)c2ccc(OC)cc2)cc1,EC50,[7],> 260 µM (inactive)
COc1ccc(OC(=O)N2C/C(=C/c3ccccc3)C(=O)/C(=C\c3ccccc3)C2)cc1,CC50,Vero,9.88 µM (active)
Cc1cc(Oc2ccccc2)nc(N2CCOCC2)n1,EC50,cells [8],> 350 µM (not active)
same,EC50,cells [9],> 350 µM (not active)
COc1ccc(C(=O)NC2CCN(C(S)=NCc3ccco3)CC2)cc1,EC50,[7],> 260 µM (inactive)
Cn1c(=O)c2c(nc(SCCN3CCOCC3)n2Cc2ccccc2Cl)n(C)c1=O,EC50,[5],> 112 µM (not active)
same,EC50,[6],> 112 µM (not active)
Cc1ccc(C(=O)CNc2cccc([N+](=O)[O-])c2)cc1,IC50,[10],> 66 µM (inactive)
same,IC50,[11],> 66 µM (inactive)
N#CC1=C(N)Oc2cc(N)ccc2C1c1cccc(F)c1 (stereo unspecified),EC50,BJ [1],10.8 µM (active)
same,EC50,BJ [2],14.2 µM (inconclusive)
same,EC50,[3],16.5 µM (active)
same,EC50,BJ [4],34 µM (active)
COC(=O)c1ccc(Cl)c(NC(=O)CSc2nnc(-c3ccncc3)o2)c1,EC50,[12],> 150 µM (not active)
same,EC50,Streptococcus,> 150 µM (not active)
same,EC50,Streptokinase A,> 150 µM (not active)
O=S(=O)(c1cc(Cl)ccc1Cl)N1CC2CCCN2c2ccc(C(F)(F)F)cc21 (stereo unspecified),EC50,[7],> 260 µM (inactive)
COc1ccc(NC(=O)CSc2nnc(NC(C)=O)s2)c([N+](=O)[O-])c1,IC50,[10],> 66 µM (inactive)
same,IC50,[11],> 66 µM (inactive)
COC(=O)c1cn(NC(=O)C2CCC(C)CC2)c(=O)c2ccccc12 (stereo unspecified),EC50,[7],> 260 µM (inactive)
